Values quoted from earlier work, collected in patent EP3142678B1, “USE OF CRANBERRY PROANTHOCYANIDINS WITH HERBAL COMPONENTS FOR TREATING AND PREVENTING URINARY TRACT INFECTIONS” (Specchiasol S.r.l., priority 2014, dated 2015).
Where two headings read alike, the source gives them in different places.

Test system: slime-producing uropathogenic Escherichia coli strains
Details: for percentage of residual slime relative to the control: range over four strains; for reduced biofilms: fosfomycin 2000 mg/l

Row | Structure (SMILES) | percentage of residual slime relative to the control (0.007 mg/ml of NAC) | percentage of residual slime relative to the control (8 mg/ml of NAC) | remaining exopolysaccharide matrix, of the amount found with the untreated control (pre-formed biofilms, NAC at the highest concentrations used) | reduced biofilms (initial (5 h) biofilms) | reduced biofilms (mature (48 h) biofilms)
1 | CC(=O)N[C@@H](CS)C(=O)O [NAC, N-Acetylcysteine] | 62.5-100% | 26.2-64.1% | 25-68% | – | –
2 | C[C@@H]1O[C@@H]1P(=O)(O)O [fosfomycin] | – | – | – | 40-57% | 41-49%
